B1: RNase 7: Recombinant human RNase 7, used to verify sensitivity of UTI89 to killing by antimicrobial peptides (protein, UniProt Q9H1E1 29-156, looked up)
Ribonuclease 7: KPKGMTSSQWFKIQHMQPSPQACNSAMKNINKHTKRCKDLNTFLHEPFSSVAATCQTPKIACKNGDKNCHQSHGAVSLTMCKLTSGKHPNCRYKEKRQNKSYVVACKPPQKKDSQQFHLVPVHLDRVL

Tested on: UPEC strain UTI89
Experiment: Microdilution bactericidal assay of recombinant antimicrobial peptides (CFU count, MIC)
Format: cell-based, Escherichia coli
Details: for minimum inhibition concentration (MIC), lowest peptide concentration inhibiting growth of 90% of the inoculum: UTI89 10^5 CFU, 0.3125-10 µM peptide in 50 µl 0.1X PBS, 3 hours at 37°C, then plated overnight on LB, CFU versus untreated bacteria; for bactericidal activity toward UPEC in vitro (in words): UTI89, recombinant peptide, microdilution assay
Procedure: Recombinant mBD-3 was synthesized in E. coli (5987-BD, R&D Systems, Minneapolis, MN). Recombinant mBD-14 was synthesized as a mature peptide in E. coli and purified as described. Antimicrobial activity of recombinant peptides was evaluated by microdilution assay. Briefly, UTI89 bacteria (10^5 CFU) were incubated with 0.3125, 0.625, 1.25, 2.5, 5, or 10 µM of mBD-3 or mBD-14 in 50 µl 0.1X PBS buffer for 3 hours at 37°C, then plated overnight on LB at 37°C. Next, the number of CFU at each concentration of peptide was determined. Using untreated bacteria as baseline, the minimum inhibition concentration (MIC) was identified by the lowest peptide concentration inhibiting growth of 90% of the inoculum as described previously. Sensitivity of the UTI89 bacterial strain to killing by antimicrobial peptides was verified with the use of recombinant human RNase 7, yielding MIC of 0.2-0.4 µM, consistent with published data[24].

Molecule | minimum inhibition concentration (MIC), lowest peptide concentration inhibiting growth of 90% of the inoculum [µM] | bactericidal activity toward UPEC in vitro (in words)
mBD-3: Recombinant mBD-3 synthesized in E. coli (5987-BD, R&D Systems); protein encoded by Defb3 (KKINNPVSCLRKGGRCWNRCIGNTRQIGSCGVPFLKCCKRK; UniProt Q9WTL0 23-63, looked up) | 1.25 to 2.5 | dose-dependent bactericidal activity
mBD-14: Recombinant mBD-14 synthesized as a mature peptide in E. coli and purified; protein encoded by Defb14 (FLPKTLRKFFCRIRGGRCAVLNCLGKEEQIGRCSNSGRKCCRKKK; UniProt Q7TNV9 23-67, looked up) |  | dose-dependent bactericidal activity
B1 | 0.2 to 0.4 | 

Reference: PMC3804605, “Expression and Antimicrobial Function of Beta-Defensin 1 in the Lower Urinary Tract” (PLoS ONE, 2013)
